# Test system: P. acnes Group 1, 2 and 3 isolates
# Assay: Growth of P. acnes isolates on semi-selective Brain Heart Infusion agar containing antibiotics
# Format: cell-based, Propionibacterium acnes
# Protocol: Brain Heart Infusion Agar (Oxoid Australia Ltd) was prepared containing 0.5% Tween 80 and adjusted to a pH of 6.0 using hydrochloric acid prior to autoclaving. […] Both antibiotics were prepared freshly immediately prior to use, and the agar plates were incubated at 37° C. for 24 hrs to ensure sterility then stored at 4° C. and used within 3 weeks of preparation.
# Inclusion of gentamicin as a selective agent and Tween 80 as a growth stimulant for P. acnes was previously discussed by Kishishita (1980).
substance,measurement,setting,value
gentamicin,growth of some strains of P. acnes Groups 2 and 3,at 6 μg/mL furazolidone and 4 μg/mL gentamicin in the semi-selective medium,noticeable growth inhibition
same,maximal concentration that allowed reasonable growth,"semi-selective agar, after 7 days of anaerobic incubation",4 µg/mL
